These results are taken from article PMC11314410, “Synthesis and Anti-Trypanosoma cruzi Activity of New Pyrazole-Thiadiazole Scaffolds” (Molecules, 2024).

In data set [1] the test system is Trypomastigotes of T. cruzi (Dm28c-Luc). Nature of the data set: microbe, parasite or virus in culture. It counts as cell-based, Trypanosoma cruzi. To be noted: for IC50 / IC90: 24 h treatment; for IC50: mean ± SD, read-out: Anti-T. cruzi Activity Trypomastigotes IC50; for IC90: read-out: Anti-T. cruzi Activity Trypomastigotes IC90. As for the experimental part: (§1) Genetically modified T. cruzi parasites, of clone Dm28c (TcI) expressing the firefly luciferase enzyme gene (Dm28c-Luc), were kindly provided by Dr. Cristina Henriques. T. cruzi Dm28c-Luc was maintained in a Vero cell cultivated in RPMI 1640 medium supplemented with 10% FBS. At 4-day post-infection (dpi), trypomastigotes, released in the cell culture supernatant, were harvested, followed by sedimentation (4000 rpm/20 min/4 °C) and quantification in a Neubauer chamber. Isolated trypomastigotes were used in the phenotypic screening assays as well as the antiparasitic activity in 3D cardiac microtissues, recovery (washout), and drug combination assays.
Drug screening was performed against clinically relevant forms of T. cruzi (amastigotes and trypomastigotes). Trypomastigotes, Dm28c-Luc (1 × 10^6 parasites/well), were added to 96-well plates and incubated with pyrazole-thiadiazole derivatives or Bz (100–0.41 µM). After 24 h of treatment (37 °C), the viability of the parasites was analyzed by adding a D-Luciferin solution (300 µg/mL) and luminescence was measured in the Glomax microplate reader.

Data set [2] has as its system Intracellular amastigotes of T. cruzi (Dm28c-Luc). Nature of the data set: microbe, parasite or virus in culture. It counts as cell-based, Trypanosoma cruzi. Conditions: for IC50 / IC90: Trypanosoma cruzi; for IC90: read-out: Anti-T. cruzi Activity Intracellular Amastigotes IC90. As to the method:
as §1
The activity of pyrazole-thiadiazole derivatives against intracellular amastigotes was evaluated in 24 h-T. cruzi infected Vero cell cultures (1.5 × 10^4 cells/well) at a 10:1 ratio. The cultures were washed and incubated with serial dilutions of the derivatives or Bz (100–0.41 µM). Drug treatment was carried out for 72 h at 37 °C and the parasite viability was determined by luminescence readout after D-Luciferin substrate addition (300 µg/mL). The reading was performed in the Glomax reader. The cell cultures incubated with the culture medium containing dimethylsulphoxide (DMSO; concentration ≤ 1%) were used as the […]. The concentrations required to inhibit parasite viability by 50% (IC50) and 90% (IC90) were calculated using Prism GraphPad software (version 8.2.1). The selectivity index (SI), which measures the window between cytotoxicity (CC50) and anti-T. cruzi activity (IC50), was calculated as CC50/IC50. A minimum of 3 independent assays in duplicate were performed.

Data set [3] is described as follows: Toxicity in mammalian cells (CellTiter Glo, 72 h). It counts as cell-based. To be noted: African green monkey, Vero cells; 72 h, ATP levels; read-out: Cytotoxicity Vero Cells CC50. As to the method:
(§2) Vero cell cultures grown in RPMI 1640 medium containing 10% fetal bovine serum (FBS) were cultured at 37 °C in a humidified atmosphere of 5% CO2 [82]. The cultures were used for drug screening assays and to obtain culture-derived trypomastigotes of T. cruzi.
(§3) Vero cells (1.5 ×10^4 cells/well), cultivated for 24 h at 37 °C in white 96-well plates with clear bottoms, were used to assess the toxicity of the pyrazole-thiadiazole derivatives (series 1 and 2). After washing, the cells were incubated for 72 h at 37 °C with different drug concentrations (500–1.95 μM). Cell viability was measured by adding 20 μL/well of CellTiter Glo reagent (Promega Corporation, Madison, WI, USA). This cell viability kit generates a luminescent signal proportional to the amount of ATP. The luminescence readout was performed using the Glomax Microplate Reader (Promega Corporation, Madison, WI, USA). Thus, the 50% cytotoxicity concentration (CC50), which reduces the cell viability by 50% (CC50), was calculated with Prism GraphPad software (version 8.2.1).

Data set [4] relates to Vero cells. Nature of the data set: Toxicity in mammalian cells (CellTiter Glo, 72 h). It counts as cell-based. As for the experimental part: as §2, §3
(In general: Cellular ATP, detected with luciferase, serves as a proxy for viable cell number.)

Data set [5] can be described thus: Cardiac toxicity in 2D cardiac monolayers (CellTiter-Glo, 72 h). Format: cell-based, Swiss webster mice. Conditions: Swiss webster, mouse, primary cardiac muscle cell monolayers (2D culture), ATP levels. As for the experimental part: The primary culture of heart muscle cells was obtained from fetuses of Swiss webster mice. The heart was removed and the ventricles were fragmented and subjected to dissociation with trypsin and collagenase type II (Worthington Biochemical Corporation, Lakewood, USA) dissociation solution. Cell monolayers were employed to evaluate drug-induced cardiotoxicity.
(§4) The 2D cardiac cultures (5 × 10^4 cells/well) and 3D cardiac microtissues (2.5 × 10^4 cells/well) were incubated for 72 h at 37 °C with pyrazole-thiadiazole candidates followed by ATP detection by CellTiter-Glo [86]. A minimum of 3 independent assays were performed in duplicate.

Data set [6] in a line: Cardiac toxicity in 3D cardiac spheroids (CellTiter-Glo, 72 h). Format: cell-based, Swiss webster mice. Conditions: Swiss webster, mouse, 3D cardiac microtissue (cardiac spheroids), ATP levels, read-out: Toxicity CC50 3D Culture. As to the method: (§5) Three-dimensional (3D) cardiac cells were obtained as previously described. Briefly, isolated cardiac muscle cells (2.5 × 10^4 cells/well) were seeded in 96-well U-bottom plates coated with agarose (1%) to form cell aggregates. Cardiac microtissue (7 days in culture) was employed to determine cardiotoxicity and drug efficacy in more complex systems. All animal-use procedures were approved by the Animal Care and Use Committee of Instituto Oswaldo Cruz (license L017/2022-A2).
as §4

The test system of data set [7] is T. cruzi (Dm28c-Luc) intracellular parasites in 3D cardiac spheroids. Nature of the data set: Antiparasitic activity in T. cruzi-infected 3D cardiac microtissues. Format: cell-based, Trypanosoma cruzi. To be noted: 72 h; for inhibition at 100 µM: Trypanosoma cruzi, read-out: Inhibition of parasite load in 3D cardiac microtissue. As for the experimental part: as §5
Cardiac spheroids (2.5 × 10^4 cells/well), formed after 7 days of cultivation in a U-bottom plate, were infected for 24 h with trypomastigote forms of T. cruzi (Dm28c-Luc) at a ratio of 20:1 parasite-host cell. After washing, the drugs were added at concentrations of IC90, two times IC90, and 100 µM, respecting the CC20 value of cardiac spheroids as the maximum concentration. Bz was added at 100 µM. Luminescence measurements, which reveal the luciferase activity of the viable parasites, were performed after the addition of D-luciferin substrate (300 µg/mL). The luminescent signal was read in the Glomax reader and the results were represented in arbitrary luminescence units (ALU). The fluorescence microscopy images were also acquired from untreated and drug-treated infected 3D microtissues. Three-dimensional cultures were fixed with 4% paraformaldehyde in PBS and labeled with 4′,6-diamidino-2-phenylindole (DAPI). Images were acquired using a Zeiss Axio Imager M2 fluorescence microscope using Axio vision software (version 4.8).

Data set [8] deals with T. cruzi (Dm28c-Luc) in Vero cell cultures. Nature of the data set: Washout (recovery) assay in T. cruzi-infected Vero cell cultures. It counts as cell-based, Trypanosoma cruzi. To be noted: for ALUmean of parasite load in cell monolayer, washout assay: 10 days treatment + 10 days without drug; for Prevention of reactivation of infection after drug withdrawal: washout assay. As to the method:
The culture medium of the untreated and treated infected cultures was replaced every 3 or 4 days by a fresh medium with or without the pyrazole-thiadiazole derivatives. The presence of free viable parasites in the culture supernatant was monitored at each medium change by adding luciferin (300 µg/mL) followed by readout on a Glomax microplate reader. At the endpoint, culture supernatants and cell monolayers were evaluated for viable parasites. Positive and negative controls were performed using Bz (150 µM) and DMSO (≤1%), respectively. A minimum of 3 independent experimental runs were performed with 12 replicates.

The subject of data set [9] is T. cruzi infection of HeLa spheroids. Further details: method as in PMID 36099853. Conditions: 40 µM pretreatment of HeLa spheroids; cited from earlier work.
Data set [10] has as its system T. cruzi in 3D cardiac spheroids. Further details: method as in PMID 33383023. To be noted: 10 µM; cited from earlier work.
[11] abbreviates: Trypanosoma cruzi, 24 h, Dm28c-Luc.
Where [12] appears, read: Vero, read-out: Intracellular Amastigotes pIC50 (converted).
Where [13] appears, read: Dm28c-Luc in Vero cells, 72 h treatment, mean ± SD, read-out: Anti-T. cruzi Activity Intracellular Amastigotes IC50.
Where [14] appears, read: Dm28c-Luc in Vero cells, 72 h treatment, mean ± SD.

Several values for one entry are separate records, joined by “and”; a condition that tells them apart may be missing. Equal values may be shown once. Read-outs that look alike come from different tables or passages of the source.

Usually IC90 stands for the point of the concentration-response curve where the effect stands at 90%. By CC50 is commonly meant the concentration at which the toxic effect on the cells reaches its halfway point. What is called inhibition is the relative decrease from the control value, in per cent. As usually defined, the melting point is the temperature of the solid-liquid transition. `Nc1nnc(-c2cnn(-c3ccc([N+](=O)[O-])cc3)c2N)s1` [2k, 5-Amino-2-(5-amino-1-(4-nitrophenyl)-1H-pyrazol-4-yl)-1,3,4-thiadiazole] came in with a melting point of 321 to 323 °C. In addition, the “Trypomastigotes SI (CC50 of Vero cells/IC50 of trypomastigotes)” value in data set [1] is recorded as above 5. For the same compound, the IC50 in [1] (setting [11]) was above 100 µM. Besides, the IC90 in [1] (Trypanosoma cruzi, Dm28c-Luc) was above 100 µM. Moreover, in data set [2] (setting [12]), the IC50 is 10.5 µM. Also, the IC50 in data set [2] (setting [13]) came out at 10.4 ± 1.21 µM. Moreover, the IC90 in data set [2] (setting [14]) came out at 23.2 ± 4.23 µM. In addition, the CC50 at 72 h in [3] was above 500 µM. Also, in [4], the “CC20 for Vero cell monolayers” value was above 500 µM. The CC50 at 72 h in [5] stood at 191 ± 21 µM. Besides, the CC50 at 72 h in [6] was above 500 µM. Moreover, the “ALUmean (luminescence, parasite load) in 3D cardiac microtissue” value (“ALUmean (luminescence, parasite load)” below) in data set [7] (100 µM) is 5366 ± 2348 ALU. In addition, the inhibition at 100 µM in data set [7] (100 µM, vs infected untreated) came out at 86%. Further, in data set [8] (150 µM), the “Activity relative to 1c in cell monolayer, washout assay” value was 11.8 times and the “ALUmean of parasite load in cell monolayer, washout assay” value (“ALUmean of parasite load” for short) was found to be 4845 ± 2419 ALU. Further, in data set [8] (300 µM), the “Activity relative to 1c in cell monolayer, washout assay” value is listed as 19.8 times and the “ALUmean of parasite load” value was found to be 3349 ± 1767 ALU. In addition, the “Reduction of parasite release vs untreated infected group” value in data set [8] (300 µM, 14 dpi) is reported as 93%. Also, the “Prevention of reactivation of infection after drug withdrawal” value in data set [8] is given as “did not prevent parasite recrudescence”.

As for `Oc1ccc(/C=C/c2cc(O)cc(O)c2)cc1` [resveratrol], the “Reduction of T. cruzi infection level” value in [9] is on record as 50%.

As for `Nc1nnc(-c2cnn(-c3ccc(Cl)cc3Cl)c2)s1` [1c, 5-Amino-2-(1-(2,4-dichlorophenyl)-1H-pyrazol-4-yl)-1,3,4-thiadiazole], the melting point was 284 to 285 °C. Besides, in [1] (Dm28c-Luc, 24 h), the “Trypomastigotes IC75” value is 54.6 µM and 54.66 µM. For the same compound, the IC50 in data set [1] (Dm28c-Luc) came out at 21.7 ± 2.94 µM. Moreover, the IC50 in data set [1] (setting [11]) was found to be 21.7 µM. Also, the IC90 in [1] (Trypanosoma cruzi, Dm28c-Luc) is above 100 µM. Also, in data set [2] (setting [12]), the IC50 is 13.5 µM. For the same compound, the IC50 in data set [2] (setting [13]) was 13.5 ± 4.47 µM. The IC90 in [2] (setting [14]) is 42.3 ± 3.47 µM. The half-maximal cytotoxic concentration (CC50) at 72 h in data set [3] is above 500 µM. Moreover, the “CC20 for Vero cell monolayers” value in data set [4] is above 500 µM. In data set [5], this compound showed a CC50 at 72 h above 500 µM. For the same compound, the CC50 at 72 h in data set [6] is above 500 µM. Also, the “ALUmean (luminescence, parasite load)” value in [7] (100 µM) is recorded as 17,078 ± 2407 ALU. Further, the inhibition at 100 µM in [7] (100 µM, vs infected untreated) came to 57%. Also, the “ALUmean of parasite load” value in data set [8] (150 µM) is reported as 57,103 ± 15,228 ALU. Besides, in [8] (300 µM), the “ALUmean of parasite load” value is 66,378 ± 14,991 ALU. Besides, the inhibition at 150 µM in [8] (Trypanosoma cruzi, Vero, 150 µM, 11 dpi, read-out: Inhibition in the release of trypomastigotes) turned out to be 52%. Also, in data set [8] (Trypanosoma cruzi, Vero, 300 µM, 11 dpi, read-out: Inhibition in the release of trypomastigotes), the inhibition at 300 µM was 66%. In addition, the “Prevention of reactivation of infection after drug withdrawal” value in [8] was “trypanostatic action”.

For `O=C(Cn1ccnc1[N+](=O)[O-])NCc1ccccc1` [Bz, benznidazole, reference compound], in data set [1], the “Trypomastigotes SI (CC50 of Vero cells/IC50 of trypomastigotes)” value is listed as above 38.88. The IC50 was 12.8 ± 2.66 µM in data set [1] (Trypanosoma cruzi, Dm28c-Luc); 3.63 µM in data set [2] (setting [12]); 3.61 ± 1.25 µM in data set [2] (setting [13]). Besides, the IC90 was above 100 µM in data set [1] (Trypanosoma cruzi, Dm28c-Luc) and 11.5 ± 4.17 µM in data set [2] (setting [14]). In addition, the “Intracellular Amastigotes SI (CC50 of Vero cells/IC50 of intracellular amastigotes)” value in data set [2] was above 158.23. Further, the CC50 at 72 h in data set [3], in [5] and in data set [6] was above 500 µM each time. Further, in data set [7] (100 µM), the “ALUmean (luminescence, parasite load)” value stood at 3520 ± 2198 ALU. The inhibition at 100 µM in data set [7] is 91%. The “ALUmean of parasite load” value in data set [8] (150 µM) was 3426 ± 1727 ALU. Further, the inhibition at 150 µM in data set [8] (Trypanosoma cruzi, Vero, read-out: Inhibition in the release of trypomastigotes) amounted to 77%; in [8] (Trypanosoma cruzi, Vero, read-out: Inhibition of parasite release) it was 82%. In data set [10], the “Reduction of parasite load” value was 92%.
